Results published in patent publication US12258337B2, “Bicyclic CX3CR1 receptor agonists” (Board of Regents, The University of Texas System, priority 2019, dated 2025).
pEC50: −log10 of the molar value.

Experiments:
Format in all cases: cell-based
mCX3CR1 = biological target: T1, mCX3CR1 (Mus musculus, UniProt Q9Z0D9); test: Ga16 assay, CX3CR1 agonism, Ca2+ sensitive photo-protein readout (FLIPRTETRA); settings: mouse CX3CR1 cell line
T1 construct: expressed in transfected cells; stably expresses a Ca2+ sensitive photo-protein
T1 sequence (Q9Z0D9 1-354): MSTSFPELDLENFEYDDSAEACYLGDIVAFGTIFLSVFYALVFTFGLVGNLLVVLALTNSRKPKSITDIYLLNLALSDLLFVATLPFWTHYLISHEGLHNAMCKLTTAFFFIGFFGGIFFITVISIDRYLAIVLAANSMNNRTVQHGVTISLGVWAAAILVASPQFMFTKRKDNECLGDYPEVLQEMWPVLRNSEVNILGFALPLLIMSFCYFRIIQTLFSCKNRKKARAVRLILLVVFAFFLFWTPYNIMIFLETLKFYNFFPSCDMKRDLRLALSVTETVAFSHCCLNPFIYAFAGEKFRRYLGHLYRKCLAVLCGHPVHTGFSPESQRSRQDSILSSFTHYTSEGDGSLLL
Outline: (§1)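 Cells expressing human, mouse or rat CX3CR1 with a stably expressed Ca2+-sensitive photoprotein were loaded with 10 μM coelenterazine in tyrode buffer pH 7.4 for 3 h at room temperature. Agonist-mode luminescence kinetics were recorded for 90 s after compound injection on FLIPRTETRA. Dose-response runs were done in quadruplicate, with fractalkine as the reference agonist.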

rCX3CR1 = biological target: T2, rCX3CR1 (Rattus norvegicus, UniProt P35411); test: as above; settings: rat CX3CR1 cell line
T2 construct: expressed in transfected cells; stably expresses a Ca2+ sensitive photo-protein
T2 sequence (P35411 1-354): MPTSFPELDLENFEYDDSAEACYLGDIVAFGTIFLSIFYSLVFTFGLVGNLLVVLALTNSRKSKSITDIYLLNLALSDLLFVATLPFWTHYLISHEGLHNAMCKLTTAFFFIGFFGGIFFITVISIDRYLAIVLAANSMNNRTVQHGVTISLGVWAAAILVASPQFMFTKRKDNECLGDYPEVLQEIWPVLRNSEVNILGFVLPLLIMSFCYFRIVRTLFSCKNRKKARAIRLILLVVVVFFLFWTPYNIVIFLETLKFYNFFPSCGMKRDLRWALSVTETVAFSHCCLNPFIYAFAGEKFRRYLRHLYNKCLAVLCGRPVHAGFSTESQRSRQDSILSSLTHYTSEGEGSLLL
Outline: as §1

hCX3CR1 [1] = biological target: T3, hCX3CR1 (Homo sapiens, UniProt P49238); test: as above; parameters: expressed in transfected cells; stably expresses a Ca2+ sensitive photo-protein; settings: human CX3CR1 cell line
T3 sequence (P49238 1-355): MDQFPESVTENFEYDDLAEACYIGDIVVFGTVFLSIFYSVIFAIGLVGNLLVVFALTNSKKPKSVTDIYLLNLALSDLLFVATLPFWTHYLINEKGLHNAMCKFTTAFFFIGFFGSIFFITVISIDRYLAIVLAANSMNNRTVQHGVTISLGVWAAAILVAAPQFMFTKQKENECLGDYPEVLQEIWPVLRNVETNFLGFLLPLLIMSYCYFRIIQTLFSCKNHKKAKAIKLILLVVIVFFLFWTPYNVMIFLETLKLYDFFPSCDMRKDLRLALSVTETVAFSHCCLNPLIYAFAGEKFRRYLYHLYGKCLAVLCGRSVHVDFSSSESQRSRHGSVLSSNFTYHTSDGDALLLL
Outline: as §1

hCX3CR1 [2] = biological target: T3, hCX3CR1; test: ChAMPion assay (CHO ChAMPion/CX3CR1 K1.6, cAMP/CNG channel, photoprotein luminescence); parameters: expressed in transfected cells; stably expresses a Ca2+ sensitive photo-protein; settings: ChAMPion assay, CHO ChAMPion/CX3CR1 K1.6, Forskolin 3 μM; read-out: hCX3CR1 agonism EC50
Procedure: Buffers and reagents. PBS (D-PBS without calcium and magnesium; EuroClone); Trypsin (Trypsin 0.05%, EDTA 0.02% in PBS; EuroClone); DMSO (Sigma); Tyrode buffer Ca^2+ free: in-house solution (130 mM NaCl, 5 mM KCl, 1 mM MgCl^2, 5 mM NaHCO3, 20 mM HEPES (pH 7.4); sterile filtered and autoclaved); Tyrode buffer 10 mM Ca^2+: in-house solution (130 mM NaCl, 5 mM KCl, 10 mM CaCl2), 1 mM MgCl2, 5 mM NaHCO3, 20 mM HEPES, in water at pH 7.4, sterile filtered); Coelenterazine, native (Biosynth); stock 10 mM; Agonist: Recombinant Human Fractalkine (CX3CL1) (PeproTech); stock: 10 μM in standard Tyrode buffer/BSA 01%; stored at −20° C.
Cell line. The final clone for the hCX3CR1 assay was CHO ChAMPion/CX3CR1 K1.6. ChAMPion technology is based on the co-expression of a Ca^2+ sensitive photoprotein and of a cyclic nucleotide-gated (CNG) channel acting as a cAMP biosensor in a CHO-K1 cell line. CNG channels are non-selective ligand gated cation channels that can be opened by the direct interaction with either cAMP or cGMP, at the intracellular C-terminus site of the channel. Channel opening allows the flux of extracellular calcium into the cell cytoplasm and its transient elevation can be recorded by means of several different calcium indicators. In the chAMPion system, the CNG channel has been modified to display sensitivity to cAMP levels in the physiological range. In addition the calcium influx through the opened channel is immediately detected by the recording of the photoprotein-emitted flash type luminescence signal.
The chAMPion cell line system can monitor the activation of transfected Gαi-coupled receptors, which elicit changes in 3,‘5’-adenosine cyclic monophosphate (cAMP) levels, which in turn is responsible for CNG opening and consequent Ca^2+ influx.
Assay protocol. Experiments were performed in 384 MTP format. Cells were seeded at 10,000 cells/well in 25 μL/well complete growth medium without selection antibiotics in 384-well plates. Twenty-four hours later, cells were assayed for the response to various compounds using the Ca^2+ sensitive photo-protein stably expressed in the cells as readout.
The experiment was performed in a 384-well format according to the following procedure: • 24h after seeding, pre-incubate the cells at room temperature for 1 hour. • Then remove the culture medium. • Load cells with 20 μL/well of Ca^2+ free tyrode buffer+ceolenterazine 5 μM. • Incubate cell plates for 4 hours at RT. • 10 μl/well of 3× concentrated compounds in Ca^2+ free tyrode buffer+Forskolin 9 μM (final Forskolin concentration=3 μM) are applied to the cells (at 10 μl/s). Ten minutes later a second injection is performed: 10 μl/well of Ca^2+ free tyrode buffer+BSA 0.04% (final BSA concentration=0.01%). Twenty minutes later a third injection is performed: 20 μl/well of 10 mM Ca^2+ tyrode buffer (final Ca^2+ concentration was 3.3 mM) and luminescence is recorded for 90 seconds.
Data from FLIPRTETRA measurements are analyzed with the Genedata Screener© software.

Structure (SMILES) | pEC50 (mCX3CR1) | pEC50 (rCX3CR1) | pEC50 (hCX3CR1 [1]) | pEC50 (hCX3CR1 [2])
CCCN(C)CC1(CNC(=O)c2cc3c(s2)CCCCCC3)CCCC1 [Example 6, N-[[1-[[methyl(propyl)amino]methyl]cyclopentyl]methyl]-4,5,6,7,8,9-hexahydrocycloocta[b]thiophene-2-carboxamide] | 4.74 | 4.84 | 4.82 | 5.35
CN(CCO)CC1(CNC(=O)c2cc3c(s2)CCCCCCC3)CCCC1 [Example 29, N-[[1-[[2-hydroxyethyl(methyl)amino]methyl]cyclopentyl]methyl]-5,6,7,8,9,10-hexahydro-4H-cyclonona[b]thiophene-2-carboxamide] | 4.33 | 4.33 | 4.73 | 5.32
O=C(NCC1(CN2CCCC2)CCCCC1)c1cc2c(s1)CCCCCC2 [Example 18, N-[[1-(pyrrolidin-1-ylmethyl)cyclohexyl]methyl]-4,5,6,7,8,9-hexahydrocycloocta[b]thiophene-2-carboxamide] | 4.60 | 4.63 | 4.96 | 6.03
CN(C)CC1(CNC(=O)c2cc3c(s2)CCCCCC3)CCOCC1 [Example 19, N-[[4-[(dimethylamino)methyl]oxan-4-yl]methyl]-4,5,6,7,8,9-hexahydrocycloocta[b]thiophene-2-carboxamide] | 4.51 | 4.55 | 4.84 | 5.72
O=C(NCC1(CN2CCCC2)CC1)c1cc2c(s1)CCCCCC2 [Example 4, N-[[1-(pyrrolidin-1-ylmethyl)cyclopropyl]methyl]-4,5,6,7,8,9-hexahydrocycloocta[b]thiophene-2-carboxamide] | 4.79 | 4.81 | 4.84 | 5.55
CN(CCO)CC1(CNC(=O)c2cc3c(s2)CCCCC3)CCCC1 [Example 34, N-[[1-[[2-hydroxyethyl(methyl)amino]methyl]cyclopentyl]methyl]-5,6,7,8-tetrahydro-4H-cyclohepta[b]thiophene-2-carboxamide] | 4.33 | 4.89 | 4.86 | 4.44
CCC(CC)(CNC(=O)c1cc2c(s1)CCCCCC2)CN(C)C [Example 8, N-[2-[(dimethylamino)methyl]-2-ethylbutyl]-4,5,6,7,8,9-hexahydrocycloocta[b]thiophene-2-carboxamide] | 4.77 | 4.70 | 4.79 | 4.95
CCN(CC)CC1(CNC(=O)c2cc3c(s2)CCCCCC3)CCCC1 [Example 12, N-[[1-(diethylaminomethyl)cyclopentyl]methyl]-4,5,6,7,8,9-hexahydrocycloocta[b]thiophene-2-carboxamide] | 5.04 | 4.91 | 4.88 | 5.21
O=C(NCC1(CN2CCCC2)CCOCC1)c1cc2c(s1)CCCCCC2 [Example 20, N-[[4-(pyrrolidin-1-ylmethyl)oxan-4-yl]methyl]-4,5,6,7,8,9-hexahydrocycloocta[b]thiophene-2-carboxamide] | 4.68 | 4.72 | 5.06 | 5.77
CC(CNC(=O)c1cc2c(s1)CCCCCC2)CN(C)C (stereo not shown) [Example 3, N-[3-(dimethylamino)-2-methylpropyl]-4,5,6,7,8,9-hexahydrocycloocta[b]thiophene-2-carboxamide] | 4.12 | 4.11 | 4.68 | 4.52
CN(C)CC1(CNC(=O)c2cc3c(s2)CCCCCC3)CCCCC1 [Example 22, N-[[1-[(dimethylamino)methyl]cyclohexyl]methyl]-4,5,6,7,8,9-hexahydrocycloocta[b]thiophene-2-carboxamide] | 4.82 | 4.86 | 4.94 | 5.89
CN(C)CC(C)(C)CN(C)C(=O)c1cc2c(s1)CCCCCC2 [Example 7, N-[3-(dimethylamino)-2,2-dimethylpropyl]-N-methyl-4,5,6,7,8,9-hexahydrocycloocta[b]thiophene-2-carboxamide] | 4.58 | 4.35 | 4.80 | 5.00
O=C(NCC1(CN2C[C@H]3CCO[C@@H]3C2)CCCC1)c1cc2c(s1)CCCCCC2 [Example 69, N-[[1-[[(3aR,6aS)-2,3,3a,4,6,6a-hexahydrofuro[2,3-c]pyrrol-5-yl]methyl]cyclopentyl]methyl]-4,5,6,7,8,9-hexahydrocycloocta[b]thiophene-2-carboxamide] | 4.47 | 4.69 | 4.74 | 5.26
CN(C)CC1(CNC(=O)c2cc3c(s2)CCCCCC3)Cc2ccccc2C1 [Example 10, N-[[2-[(dimethylamino)methyl]-1,3-dihydroinden-2-yl]methyl]-4,5,6,7,8,9-hexahydrocycloocta[b]thiophene-2-carboxamide] | 4.71 | 4.73 | 4.69 | 4.91
CN(C)CC1(CNC(=O)c2ccc3c(c2)CCCCCC3)CCCC1 [Example 33, N-[[1-[(dimethylamino)methyl]cyclopentyl]methyl]-5,6,7,8,9,10-hexahydrobenzo[8]annulene-3-carboxamide] | 4.35 | 4.64 | 4.76 | 5.40
CC(C)(CNC(=O)c1cc2c(s1)CCCCCCC2)CN1CCCC1 [Example 24, N-(2,2-dimethyl-3-pyrrolidin-1-ylpropyl)-5,6,7,8,9,10-hexahydro-4H-cyclonona[b]thiophene-2-carboxamide] | 4.29 | 4.22 | 4.61 | 4.97
